The values below come from patent US8912216B2, “Hetaryl-[1,8]naphthyridine derivatives” (Merck Patent GmbH, priority 2010, dated 2014).

One test deals with T1, GST-ALK5 (Homo sapiens, UniProt P36897).
T1 sequence (P36897 34-503): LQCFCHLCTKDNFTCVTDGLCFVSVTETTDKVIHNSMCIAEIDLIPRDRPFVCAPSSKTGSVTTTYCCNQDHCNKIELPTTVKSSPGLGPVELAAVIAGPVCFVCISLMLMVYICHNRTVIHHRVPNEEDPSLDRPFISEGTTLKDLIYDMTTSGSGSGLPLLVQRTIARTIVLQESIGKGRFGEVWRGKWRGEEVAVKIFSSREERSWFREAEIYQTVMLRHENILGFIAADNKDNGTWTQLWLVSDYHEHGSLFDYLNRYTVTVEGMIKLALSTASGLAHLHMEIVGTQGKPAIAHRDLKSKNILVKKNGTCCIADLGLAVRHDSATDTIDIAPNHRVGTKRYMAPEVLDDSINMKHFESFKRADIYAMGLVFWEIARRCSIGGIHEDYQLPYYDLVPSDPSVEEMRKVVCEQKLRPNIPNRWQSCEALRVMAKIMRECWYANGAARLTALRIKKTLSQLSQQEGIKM
Briefly: In-vitro (enzyme) kinase assay, 384-well flashplate (Example 36). The format is biochemical. To be noted: GST-ALK5, GST-SMAD2 substrate, 3 mM ATP, 30° C., 45 min; read-out: TβR activity (Example 36). On the procedure:
In-vitro (Enzyme) Assay for Determination of the Efficacy of Inhibitors of the Inhibition of TGF-beta-Mediated Effects
The kinase assay was carried out as 384-well flashplate assay. 31.2 nM of GST-ALK5, 439 nM of GST-SMAD2 and 3 mM of ATP (with 0.3 μCi of ^33P-ATP/well) were incubated in a total volume of 35 μl (20 mM of HEPES, 10 mM of MgCl2, 5 mM of MnCl2, 1 mM of DTT, 0.1 of BSA, pH 7.4) without or with test substance (5-10 concentrations) at 30° C. for 45 min. The reaction was stopped using 25 μl of 200 mM EDTA solution, filtered with suction at room temperature after 30 min, and the wells were washed with 3 times 100 μl of 0.9% NaCl solution. Radioactivity was measured in the TopCount. The IC50 values were calculated using RS1.

The test system of test [1] is TGF-beta-induced phosphorylation of Smad2 and Smad3 in Mv1-Lu cells. The test is described as follows: Inhibition of Smad2/3 phosphorylation in Mv1Lu cells (Example 35A). The note with it: Neogale vison, Mv1-Lu cells, TGF-beta 1 5 ng/ml, phospho-Smad2/3 ELISA, read-out: TβR activity (Example 35A). The format is cell-based, mink Mustela vison. On the procedure: Inhibition of Smad2/3 Phosphorylation in Mv1Lu Cells by TGF-bta Receptor I Kinase Inhibitors
This assay was used to determine the inhibitory potency of compounds on TGF-beta-induced phosphorylation of Smad2 (Ser465/467) and Smad3 (Ser423/425). Mv1-Lu cells (lung epithelial cell line from mink Mustela vison; ATCC number: CCL-64) were seeded in DMEM (Invitrogen) supplemented with 10% fetal bovine serum (Pan Biotech) at a defined cell density in 24-well or 96-well plates (24-well plate: 1.5×10^5 cells per well; 96-well plate: 4×10^4 cells per well). Cell cultures were incubated in DMEM at 37° C. and 10% CO2. On the next day, the medium was replaced and cells were serum-starved for 16-20 hours. The following day, serial dilutions of compounds were added to the wells, pre-incubated for 1.5 hrs before recombinant TGF-beta 1 ligand (final concentration 5 ng/ml; R&D systems) was added. After one hour of ligand stimulation, lysates were prepared and analyzed using an enzyme-linked immunosorbent assay kit (PathScan Phospho-Smad2 Kit, Cell Signaling Technologies). The ELISA detects phosphorylated Smad2 as well as phosphorylated Smad3 with the phospho-specific antibody. TGF-beta stimulated cells and unstimulated cells served as positive and negative controls (100% and background control). The concentration of the vehicle DMSO was kept constant at 0.2% (v/v) in all wells. Dose-response relationships were fitted using curve fitting algorithms of the RS1 statistics software package (Brooks Automation Inc. RS/1—Statistical Tools Handbook. Release 6.2) to determine the concentration at which half-maximal inhibition (IC50) of Smad2/3 phosphorylation was achieved.

Take `CN1CCc2ccc(-c3cncc(-c4cc(-c5cc(Cl)ccc5F)nc5ncccc45)c3)cc2C1` [compound 163, 2-(5-Chloro-2-fluoro-phenyl)-4-[5-(2-methyl-1,2,3,4-tetrahydro-isoquinolin-7-yl)-pyridin-3-yl]-[1,8]naphthyridine]: the IC50 (at GST-ALK5; in test [1]) was less than 100 nM in each case.

For `Fc1ccc(F)c(-c2cc(-c3cncc(-c4cnn(CCCN5CCOCC5)c4)c3)c3cccnc3n2)c1` [compound 48, 2-(2,5-Difluoro-phenyl)-4-{5-[1-(3-morpholin-4-yl-propyl)-1H-pyrazol-4-yl]-pyridin-3-yl}-[1,8]naphthyridine], the IC50 on GST-ALK5 was less than 100 nM; in test [1], 100 to 1000 nM.

For the compound `N#Cc1ccnc(-c2cncc(-c3cc(-c4cc(Cl)ccc4F)nc4ncccc34)c2)c1` [compound 133, 5′-[2-(5-Chloro-2-fluoro-phenyl)-[1,8]naphthyridin-4-yl]-[2,3′]bipyridinyl-4-carbonitrile], the IC50 (on GST-ALK5; in test [1]) was greater than 10000 nM throughout.

In the case of `Fc1ccccc1-c1cc(-c2cncc(-c3cccnc3)c2)c2cccnc2n1` [compound 125, 4-[3,3′]Bipyridinyl-5-yl-2-(2-fluoro-phenyl)-[1,8]naphthyridine], the IC50 (on GST-ALK5; in test [1]) was 1000 to 10000 nM each time.

For the compound `Fc1ccc(Cl)cc1-c1cc(-c2cncc(-c3ccc4c(c3)CNC4)c2)c2cccnc2n1` [compound 175, 2-(5-Chloro-2-fluoro-phenyl)-4-[5-(2,3-dihydro-1H-isoindol-5-yl)-pyridin-3-yl]-[1,8]naphthyridine], the IC50 (at GST-ALK5; in test [1]) was less than 100 nM in each case.

With `O=C1CCc2cc(-c3cncc(-c4cc(-c5cc(Cl)ccc5F)nc5ncccc45)c3)cnc2N1` [compound 165, 6-{5-[2-(5-Chloro-2-fluoro-phenyl)-[1,8]naphthyridin-4-yl]-pyridin-3-yl}-3,4-dihydro-1H-[1,8]naphthyridin-2-one], the IC50 (at GST-ALK5; in test [1]) was less than 100 nM throughout.

On to `CN1CCN(c2cncc(-c3cncc(-c4cc(-c5cc(Cl)ccc5F)nc5ncccc45)c3)c2)CC1` [compound 171, 2-(5-Chloro-2-fluoro-phenyl)-4-[5′-(4-methyl-piperazin-1-yl)-[3,3′]bipyridinyl-5 yl]-[1,8]naphthyridine], for which the IC50 (at GST-ALK5; in test [1]) was less than 100 nM in each case.

Regarding `CN1CCC(n2cc(-c3cncc(-c4cc(-c5cc(Cl)ccc5F)nc5ncccc45)n3)cn2)CC1` [compound 51, 2-(5-Chloro-2-fluoro-phenyl)-4-{6-[1-(1-methyl-piperidin-4-yl)-1H-pyrazol-4-yl]-pyrazin-2-yl}-[1,8]naphthyridine], the IC50 (at GST-ALK5; in test [1]) was less than 100 nM throughout.

On to `Fc1ccc(Cl)cc1-c1cc(-c2cncc(-c3cnn(CCN4CCOCC4)c3)c2)c2cccnc2n1` [compound 96, 2-(5-Chloro-2-fluoro-phenyl)-4-{5-[1-(2-morpholin-4-yl-ethyl)-1H-pyrazol-4-yl]-pyridin-3-yl}-[1,8]naphthyridine], for which the IC50 (at GST-ALK5; in test [1]) was less than 100 nM throughout.

For the compound `Cn1cc(-c2cc(-c3cc(-c4cc(Cl)ccc4F)nc4ncccc34)c[n+]([O-])c2)cn1` [compound 22, 2-(5-chloro-2-fluoro-phenyl)-4-[5-(1-methyl-1H-pyrazol-4-yl)-1-oxy-pyridin-3-yl]-[1,8]naphthyridine], the IC50 (on GST-ALK5; in test [1]) was 1000 to 10000 nM throughout.

As for `OCCN1CCC(n2cc(-c3cncc(-c4cc(-c5ccccc5F)nc5ncccc45)c3)cn2)CC1` [compound 53, 2-[4-(4-{5-[2-(2-Fluoro-phenyl)-[1,8]naphthyridin-4-yl]-pyridin-3-yl}-pyrazol-1-yl)-piperidin-1-yl]-ethanol], the IC50 (at GST-ALK5; in test [1]) was less than 100 nM in each case.

In the case of `Fc1ccc(Cl)cc1-c1cc(-c2cncc(-c3ccc4c(c3)CCN4)c2)c2cccnc2n1` [compound 154, 2-(5-Chloro-2-fluoro-phenyl)-4-[5-(2,3-dihydro-1H-indol-5-yl)-pyridin-3-yl]-[1,8]naphthyridine], the IC50 on GST-ALK5 lay in the range of 100 to 1000 nM; in test [1] it was 1000 to 10000 nM.

Turning to `NC(=O)COc1ccc(-c2cncc(-c3cc(-c4cc(Cl)ccc4F)nc4ncccc34)c2)cc1` [compound 138, 2-(4-{5-[2-(5-Chloro-2-fluoro-phenyl)-[1,8]naphthyridin-4-yl]-pyridin-3-yl}-phenoxy)-acetamide], the values for the IC50 (at GST-ALK5; in test [1]) were less than 100 nM and 100 to 1000 nM, respectively.

As to `Fc1ccc(Cl)cc1-c1cc(-c2cncc(-c3ccccc3)c2)c2cccnc2n1` [compound 4, 2-(5-Chloro-2-fluoro-phenyl)-4-(5-phenyl-pyridin-3-yl)-[1,8]naphthyridine], the IC50 (at GST-ALK5; in test [1]) was 100 to 1000 nM in each case.

Take `Nc1nccc(-c2cncc(-c3cc(-c4cc(Cl)ccc4F)nc4ncccc34)c2)n1` [compound 109, 4-{5-[2-(5-Chloro-2-fluoro-phenyl)-[1,8]naphthyridin-4-yl]-pyridin-3-yl}-pyrimidin-2-ylamine]: the values for the IC50 (on GST-ALK5; in test [1]) were less than 100 nM and 100 to 1000 nM, respectively.

As to `CN1CCC(n2cc(-c3cncc(-c4cc(-c5ccccc5F)nc5ncccc45)c3)cn2)CC1` [compound 30, 2-(2-fluoro-phenyl)-4-{5-[1-(1-methyl-piperidin-4-yl)-1H-pyrazol-4-yl]-pyridin-3-yl}-[1,8]naphthyridine], the IC50 (at GST-ALK5; in test [1]) was less than 100 nM each time.

For `CN1CCN(c2nc(-c3cncc(-c4cc(-c5cc(Cl)ccc5F)nc5ncccc45)c3)no2)CC1` [compound 56, 2-(5-chloro-2-fluoro-phenyl)-4-{5-[5-(4-methyl-piperazin-1-yl)-[1,2,4]oxadiazol-3-yl]-pyridin-3-yl}-[1,8]naphthyridine], the IC50 was less than 100 nM at GST-ALK5 and 100 to 1000 nM in test [1].

As to `N#Cc1cccc(-c2cncc(-c3cc(-c4cc(Cl)ccc4F)nc4ncccc34)c2)n1` [compound 160, 5′-[2-(5-Chloro-2-fluoro-phenyl)-[1,8]naphthyridin-4-yl]-[2,3′]bipyridinyl-6-carbonitrile], the IC50 (on GST-ALK5; in test [1]) was greater than 10000 nM throughout.

With `O=S(=O)(c1cccc(-c2cncc(-c3cc(-c4cc(Cl)ccc4F)nc4ncccc34)c2)c1)N1CCNCC1` [compound 145, 2-(5-Chloro-2-fluoro-phenyl)-4-{5-[3-(piperazine-1-sulfonyl)-phenyl]-pyridin-3-yl}-[1,8]naphthyridine], the IC50 at GST-ALK5 fell in the range of 100 to 1000 nM; in test [1] it was 1000 to 10000 nM.

As to `Fc1ccc(Cl)cc1-c1cc(-c2cncc(-c3ccc(N4CCNCC4)cc3)c2)c2cccnc2n1` [compound 94, 2-(5-Chloro-2-fluoro-phenyl)-4-[5-(4-piperazin-1-yl-phenyl)-pyridin-3-yl]-[1,8]naphthyridine], the IC50 (at GST-ALK5; in test [1]) was less than 100 nM throughout.

For the compound `Fc1ccc(Cl)cc1-c1cc(-c2cncc(-c3ccnc(N4CCNCC4)c3)c2)c2cccnc2n1` [compound 105, 2-(5-Chloro-2-fluoro-phenyl)-4-(2′-piperazin-1-yl-[3,4′]bipyridinyl-5-yl)-[1,8]naphthyridine], the IC50 (at GST-ALK5; in test [1]) was less than 100 nM throughout.

For the compound `CN1CC[C@@H](n2cc(-c3cncc(-c4cc(-c5ccccc5F)nc5ncccc45)c3)cn2)C1` [compound 64, 2-(2-Fluoro-phenyl)-4-{5-[1-((R)-1-methyl-pyrrolidin-3-yl)-1H-pyrazol-4-yl]-pyridin-3-yl}-[1,8]naphthyridine], the IC50 (at GST-ALK5; in test [1]) was less than 100 nM in each case.
